Measured values: ChEMBL document CHEMBL1201862, “PubChem BioAssay data set” (2004)
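All cell lines were grown in 96-well plates and treated with compound for 48 hours. GI50 is the concentration that inhibits growth by half.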 Active and inactive are the calls of the source. Rule as the data show it: active = GI50 up to about 1.1 µM and inactive = higher.

Columns and labels:
Assay in all cases: NCI-60 cell line screen, 48 h
[1] = tested on: KM-20L2
[2] = tested on: LXFL 529
[3] = tested on: HCT-15
[4] = tested on: A498
[5] = tested on: KM12
[6] = tested on: NCI/ADR-RES
[7] = tested on: CAKI-1
[8] = tested on: SK-MEL-28
[9] = tested on: U-251
[10] = tested on: 786-0
[11] = tested on: HOP-92
[12] = tested on: DMS-114
[13] = tested on: HT-29
[14] = tested on: Hs-578T
[15] = tested on: OVCAR-5
[16] = tested on: M19-MEL
[17] = tested on: UACC-257
[18] = tested on: M14
[19] = tested on: HOP-62
[20] = tested on: MDA-MB-231
[21] = tested on: SW-620
[22] = tested on: TK-10
[23] = tested on: UACC-62
[24] = tested on: PC-3
[25] = tested on: SNB-19
[26] = tested on: SN12C
[27] = tested on: IGROV-1
[28] = tested on: OVCAR-3
[29] = tested on: LOX IMVI
[30] = tested on: K562
[31] = tested on: SK-MEL-5
[32] = tested on: MDA-MB-435
[33] = tested on: NCI-H226
[34] = tested on: OVCAR-8
[35] = tested on: HL-60
[36] = tested on: ACHN
[37] = tested on: OVCAR-4
[38] = tested on: DU-145
[39] = tested on: UO-31
[40] = tested on: CCRF-CEM
[41] = tested on: MDA-N
[42] = tested on: SK-MEL-2
[43] = tested on: NCI-H23
[44] = tested on: SF-268
[45] = tested on: NCI-H460
[46] = tested on: SR
[47] = tested on: EKVX
[48] = tested on: SK-OV-3
[49] = tested on: HCT-116
[50] = tested on: XF498
[51] = tested on: DLD-1
[52] = tested on: HCC 2998
[53] = tested on: MCF7
[54] = tested on: NCI-H522
[55] = tested on: SF-295
[56] = tested on: RXF 393
[57] = tested on: COLO 205
[58] = tested on: RPMI-8226
[59] = tested on: Malme-3M
[60] = tested on: SF-539
[61] = tested on: T47D
[62] = tested on: A549

With `COc1cc(/C=C2/C(=O)N(C(=O)c3ccccc3O)N=C2C)ccc1O` as the compound, how does the GI50 [1] read?
Its GI50 is 18500 nM (inactive).

And the GI50 [2]?
The GI50 was 51.5 nM (active).

What about the GI50 [3] of the same compound?
Its GI50 is 406 nM.

What about the GI50 [4] of the same compound?
Its GI50 is 77.1 nM (active).

What about the GI50 [5] of the same compound?
Its GI50 is 202 nM (active).

And the GI50 [6]?
Its GI50 is 596 nM (active).

What about the GI50 [7] of the same compound?
The GI50 was 217 nM (active).

What about the GI50 [8] of the same compound?
Its GI50 is 34400 nM (inactive).

And the GI50 [9]?
Its GI50 is 144 nM (active).

What about the GI50 [10] of the same compound?
The GI50 was 421 nM (active).

What about the GI50 [11] of the same compound?
Its GI50 is 143 nM (active).

And the GI50 [12]?
The GI50 was 171 nM (active).

What about the GI50 [13] of the same compound?
The GI50 was 9550 nM (inactive).

And the GI50 [14]?
The GI50 was 272 nM (active).

What about the GI50 [15] of the same compound?
The GI50 was 6460 nM (inactive).

What about the GI50 [16] of the same compound?
The GI50 was 653 nM (active).

What about the GI50 [17] of the same compound?
Its GI50 is 838 nM (active).

What about the GI50 [18] of the same compound?
The GI50 was 698 nM (active).

What about the GI50 [19] of the same compound?
Its GI50 is 1770 nM (inactive).

And the GI50 [20]?
The GI50 was > 100000 nM (inactive).

What about the GI50 [21] of the same compound?
The GI50 was 1360 nM (inactive).

What about the GI50 [22] of the same compound?
Its GI50 is 5400 nM (inactive).

What about the GI50 [23] of the same compound?
The GI50 was 51.8 nM (active).

What about the GI50 [24] of the same compound?
The GI50 was 802 nM (active).

And the GI50 [25]?
Its GI50 is 123 nM (active).

And the GI50 [26]?
Its GI50 is 719 nM (active).

And the GI50 [27]?
The GI50 was 123 nM (active).

What about the GI50 [28] of the same compound?
The GI50 was 400 nM (active).

And the GI50 [29]?
The GI50 was 465 nM (active).

What about the GI50 [30] of the same compound?
The GI50 was 104 nM (active).

What about the GI50 [31] of the same compound?
The GI50 was 274 nM (active).

What about the GI50 [32] of the same compound?
The GI50 was 409 nM (active).

And the GI50 [33]?
The GI50 was 701 nM (active).

And the GI50 [34]?
Its GI50 is 352 nM (active).

What about the GI50 [35] of the same compound?
The GI50 was 536 nM (active).

And the GI50 [36]?
The GI50 was 123 nM (active).

And the GI50 [37]?
The GI50 was 1280 nM (inactive).

And the GI50 [38]?
Its GI50 is 658 nM (active).

And the GI50 [39]?
Its GI50 is 170 nM (active).

And the GI50 [40]?
The GI50 was 201 nM (active).

What about the GI50 [41] of the same compound?
Its GI50 is 385 nM (active).

What about the GI50 [42] of the same compound?
Its GI50 is 1010 nM (active).

What about the GI50 [43] of the same compound?
Its GI50 is 277 nM (active).

And the GI50 [44]?
The GI50 was 230 nM (active).

And the GI50 [45]?
The GI50 was 161 nM (active).

And the GI50 [46]?
Its GI50 is 206 nM (active).

What about the GI50 [47] of the same compound?
The GI50 was 586 nM (active).

What about the GI50 [48] of the same compound?
The GI50 was 223 nM (active).

And the GI50 [49]?
The GI50 was 95.7 nM (active).

And the GI50 [50]?
The GI50 was 72.3 nM (active).

And the GI50 [51]?
The GI50 was 60.3 nM (active).

And the GI50 [52]?
The GI50 was 4650 nM (inactive).

What about the GI50 [53] of the same compound?
Its GI50 is 514 nM (active).

And the GI50 [54]?
Its GI50 is 593 nM (active).

What about the GI50 [55] of the same compound?
Its GI50 is 214 nM (active).

And the GI50 [56]?
The GI50 was 62.8 nM (active).

What about the GI50 [57] of the same compound?
Its GI50 is 18900 nM (inactive).

What about the GI50 [58] of the same compound?
The GI50 was 1060 nM (active).

And the GI50 [59]?
Its GI50 is 430 nM (active).

What about the GI50 [60] of the same compound?
Its GI50 is 140 nM (active).

And the GI50 [61]?
The GI50 was 404 nM (active).

What about the GI50 [62] of the same compound?
The GI50 was 358 nM (active).
